Experimental data: US11912677B1, “1,3-benzothiazol-2-yl-N'-[(3-phenylprop-2-enoyl)oxy]ethanimidamide as an anticancer and antimicrobial compound” (KING FAISAL UNIVERSITY, priority 2023, dated 2024)

How the values were obtained:
[1] = system: human prostate cancer cells (PC3); experiment: Assessment of cytotoxicity by SRB assay, PC3 cells; assay type: cell-based; settings: 0.01 μM to 100 μM, 72 h
Experimental: (§1) The human prostate cancer cells (PC3) and human osteosarcoma cells (MG-63) were obtained from Nawah Scientific Inc. (Mokatam, Cairo, Egypt) and cultured in DMEM (Dulbecco's modified eagle's medium), Gibco, USA, supplemented with fetal bovine serum […] at a concentration of 10% and 100 U/mL of penicillin and streptomycin (PS). The Cells were incubated at 37° C. in a humidified environment that contained 5% CO2.
(§2) Cells were seeded in 96-well plates as aliquots of 100 μL cell suspension and incubated in a complete media for 24 h. Afterward, cells were treated with 1,3-benzothiazol-2-yl-N′-[(3-phenylprop-2-enoyl)oxy]ethanimidamide at diverse concentrations ranging from 0.01 μM to 100 μM for 72 h. Then, cells were fixed at 4° C. for one hour with 150 μL of 10% trichloroacetic acid (TCA). […] Then, 150 μL of Tris pH 10.5 (10 mM) was added, and the absorbance was measured at 540 nm using a BMG LABTECH®—FLUOstar Omega microplate reader (Ortenberg, Germany). Half maximal inhibitory concentrations (IC50) values were calculated for each experiment using GraphPad Prism 6 software. […] The inhibition was calculated using the following equation: Inhibition %=100−Average Viability
(§3) The anticancer activity of 1,3-benzothiazol-2-yl-N′-[(3-phenylprop-2-enoyl)oxy]ethanimidamide was assessed against highly aggressive androgen-independent metastatic human prostate cancer cells (PC3) and osteosarcoma (MG-63) cells.

[2] = system: human osteosarcoma cells (MG-63); experiment: Assessment of cytotoxicity by SRB assay, MG-63 cells; assay type: cell-based; settings: 0.01 μM to 100 μM, 72 h
Experimental: as §1, §2, §3

melting point: 157 to 159 °C
SMILES: N/C(Cc1nc2ccccc2s1)=N\OC(=O)/C=C/c1ccccc1 [1,3-benzothiazol-2-yl-N′-[(3-phenylprop-2-enoyl)oxy]ethanimidamide]
antiproliferative activity against prostate cancer cells (PC3) [1]: excellent antiproliferative activities
antiproliferative activity against osteosarcoma (MG-63) cells [2]: excellent antiproliferative activities
